Experimental data from patent publication US8269007B2, “Crystalline form II of 7-(dimethoxy-methyl) camptothecin, its use as intermediate and products obtained therefrom” (Sigma-Tau Industrie Farmaceutiche Riunite SpA, priority 2007, dated 2012).

Test: Thermal behaviour (TGA melting range apparatus Mettler TG 50, confirmed by DSC Mettler DSC 30)
Settings: for decomposition temperature: heat ramp 20° C./min (TGA/DSC)

SMILES	decomposition temperature [°C]	thermal stability of one crystal form compared with the other (FT-IR, powder x-ray and TGA / DSC-TGA comparison of Form I and Form II)	decomposition temperature (listed as 7-(dimethoxy-methyl)camptothecin form I) [°C]	decomposition temperature (listed as form I) [°C]
CC[C@@]1(O)C(=O)OCc2c1cc1n(c2=O)Cc2c-1nc1ccccc1c2C(OC)OC [Form II, (4S)-11-(dimethoxymethyl)-4-ethyl-4-hydroxy-1H-pyrano[3′,4′:6,7]indolizino[1,2-b]quinoline-3,14(4H,12H)-dione]	173.56			
CC[C@@]1(O)C(=O)OCc2c1cc1n(c2=O)Cc2c-1nc1ccccc1c2C(OC)OC [Form I, 7-(dimethoxy-methyl)camptothecin]		less stable	123.38	123.38
